Source: patent publication US8795742B2 (priority 2006, dated 2014)

Test system: H5 serum type avian influenza virus
Set-up: species or system yellow chicken
Conditions: in vivo

Structure (SMILES): CC(N)C12CC3CC(CC(C3)C1)C2 (stereo not drawn) [Group C, Rimantadine]
- Effective rate: 42.5%
- Number of death: 23
- Rate of death: 57.5%
